Experimental data from paper PMC6436837 (Antiviral research, 2018).
Like-named read-outs stand apart in the source and are kept apart here.

Experiments:
[1] = test system: EBOV-GFP; type: cell-based, Ebola virus
[2] = test system: EBOV-GFP; test: microbe, parasite or virus in culture; type: cell-based, Ebola virus; settings: for IC50: read-out: IC50 against EBOV-GFP
[3] = test system: A549 cells
[4] = test system: EBOV polymerase complex; type: cell-based, Ebola virus
[5] = test system: VSV-GFP; test: microbe, parasite or virus in culture; type: cell-based, vesicular stomatitis virus; settings: read-out: IC50 against VSV-GFP
[6] = test system: ZIKV; test: microbe, parasite or virus in culture; type: cell-based, Zika virus; settings: read-out: IC50 against ZIKV
[7] = test system: ISRE promoter; type: cell-based, human
[8] = test system: ISG54, ISG56, and MX1; type: cell-based, human
[9] = test system: ISRE promoter; type: cell-based, mouse
[10] = test system: Vero cells

SMILES	Reduction of viral titers in cell culture supernatants [1]	Activity against EBOV-GFP [2]	Effect on cell viability [3]	Activity in EBOV MG assay [4]	Inhibition of EBOV replication [1]	IC50 [2]	IC50 [5]	IC50 [6]	Activation of ISRE promoter [7]	ISG54 and ISG56 mRNA response [8]	ISRE reporter induction in MEFs [9]	Effect on cell viability [10]	IC50 ([4]; read-out: IC50 in EBOV MG assay)	IC50 ([2]; Zaire ebolavirus, HeLa, 24 h)	IC50 ([5]; Vesicular stomatitis virus, Vero, 21 h)	IC50 ([6]; Zika virus, Vero, 48 h)
O=C(N[C@@H]1CCCc2c1[nH]c1ccc(Cl)cc21)c1ccccn1 [GSK983, reference compound]	> 200 fold	highly active, even at the lowest concentration tested	no effect on cell viability													
O=C(NC1CCCc2c1[nH]c1ccc(Cl)cc21)c1ccccn1 (stereo not drawn) [SW308]				less active	unable to inhibit EBOV virus replication efficiently	1700 nM										
O=C(NC1CCCc2c1[nH]c1ccc(Cl)cc21)c1ccccn1 (stereo not drawn) [SW835]	> 200 fold		no effect on cell viability	potent activity		~20 nM	400 nM	40 nM	activated the ISRE promoter	responded	not affected in IFNAR knockout cells	no significant effect on cell viability				
Cc1c(-c2ccc(-c3ccccc3F)cc2)nc2ccc(F)cc2c1C(=O)O [brequinar, reference compound]					potently inhibited virus growth				activated the ISRE promoter	responded	not statistically significant compared to DMSO-treated cells		100 nM	100 nM	500 nM	300 nM
